Measurements reported in publication PMC6151865, “Targeting protein biotinylation enhances tuberculosis chemotherapy” (Science Translational Medicine, 2018).
Read-outs that look alike come from different tables or passages of the source.

How the values were obtained:
Rv3406 [1] = target: T1, Rv3406 (Mycobacterium tuberculosis, UniProt P9WKZ1); conditions: substrate; ref Neres et al., ACS Chem Biol 10, 705-714 (2015); cited from earlier work
Mtb [2] = assay: Acid-fast (Kinyoun) staining after Bio-AMS exposure; type: cell-based, Mycobacterium tuberculosis; conditions: lethal dose (5 µM); after 10 days of exposure
in vivo [3] = conditions: CD-1, mouse
[4] = Tolerability at ascending intraperitoneal doses; type: in vivo, CD-1 mice
Method: Groups of three mice received Bio-AMS (50, 100, 250, or 500 mg/kg) via intraperitoneal injection at 4 ml/kg. They were observed continuously for the first half-hour after injection and then at 24 hours after injection.
Table S5. Tolerability of Bio-AMS at ascending intraperitoneal doses in CD-1 mice.a Bio-AMS 50mg/kg (IP) 4 ml/kg
Mouse # Weight ½ h Observation 24h Observation
Bio-AMS 100mg/kg (IP) 4 ml/kg
Bio-AMS 250mg/kg (IP) 4 ml/kg
Bio-AMS 500mg/kg (IP) 4 ml/kg […]
would be tolerated in mice (with plasma concentrations above the MIC for a minimum of 40-50% of the dosing interval). For this, we conducted a dose escalation tolerab ility study in which groups of three mice received ascending IP doses of Bio-AMS. Only the lowest dose of 50 mg/kg was tolerated up to 24 h post injection. Animal weights remained unchanged during the 24 h period post-injection at all doses. Assuming linear pharmacokinetics, a 50 mg/kg dose would deliver plasma concentrations above the MIC for a very small fraction of the dosing

Mtb [5] = type: cell-based, Mycobacterium tuberculosis
Mtb [6] = assay: MIC measurements (carbon sources, biotin in medium)
Rv3406 [7] = target: T1, Rv3406
Mtb H37Rv strain = assay: Combination of Bio-AMS with rifampicin, ethambutol, isoniazid in liquid culture; type: cell-based, Mycobacterium tuberculosis; conditions: for bactericidal activity when used individually: Bio-AMS at 1 µM, rifampicin at 6.5 nM, ethambutol at 12.5 µM; for change of MIC by sublethal dose of Bio-AMS: Bio-AMS 1 µM, 3 days pre-exposure; for Mtb inoculum killed: after 20 days of treatment
[8] = system: non-replicating Mtb H37Rv strain; assay: Viability of non-replicating Mtb (PBS starvation); type: cell-based, Mycobacterium tuberculosis; conditions: starvation in PBS
[9] = in vivo
Mtb in mouse macrophages = assay: Intracellular Mtb in mouse bone marrow-derived macrophages; conditions: treated 24 hours after infection
[10] = Rifampicin-doxycycline interaction study; conditions: plasma; for AUC(0-t): female, CD-1, mouse, in vivo, po, Doxycycline AUC[0-8] Mean (SD); for Doxycycline Cmin Mean (SD): daytime
in vivo [11] = conditions: female, NZW, rabbit, lung lesions and plasma, oral
[12] = 7 days
Mtb ∆bioA = type: cell-based, Mycobacterium tuberculosis
bioA TetON-1 Mtb strain = system: bioA TetON-1 Mtb strain; set-up: species or system C57BL/6 mice; conditions: in vivo
in vivo [13] = conditions: female, CD-1, mouse, po, 10 mg/kg
[14] = system: [H][C@]12CS[C@@H](CCCCC(=O)NS(=O)(=O)NC[C@H]3O[C@@H](n4cnc5c(N)ncnc54)[C@H](O)[C@@H]3O)[C@@]1([H])NC(=O)N2; assay: purified protein, by the assay type; conditions: pH 7.5; 25.0 °C
[15] = different carbon sources at 0.1%
[16] = rifampicin single dose plus doxycycline in diet (2000 ppm, 7 days)
[17] = rifampicin steady state + doxycycline in diet

## CCCCC(CC)COS(=O)(=O)[O-].[Na+] (centres unmarked) [2-EHS, 2-ethylhexyl sulfate]
Rv3406 [1]
  Km: 8.8 ± 0.5 µM
  kcat: 19.2 ± 0.9 min⁻¹

## Nc1ncnc2c1ncn2[C@@H]1O[C@H](CNS(=O)(=O)NC(=O)CCCC[C@@H]2SC[C@@H]3NC(=O)N[C@@H]32)[C@@H](O)[C@H]1O [Bio-AMS, 5′-[N-(d-biotinoyl)sulfamoyl]amino-5′-deoxyadenosine]
HepG2 cells
  mitochondrial toxicity: no signs of mitochondrial toxicity
HepG2 cells; human
  shift in IC50, glucose medium compared to galactose medium: 1.05 fold
Mtb [2]
  acid-fastness: most bacteria no longer stained as acid-fast
Mtb H37Ra
  growth of Mtb H37Ra (CFU): prevented growth
In vivo [3]; 25 mg/kg
  bioavailability: 2%
In vivo [3]; ip, 25 mg/kg
  AUC(0-t): 31.8 µM·h
  Cmax: 61.1 µM
In vivo [3]; iv, 5 mg/kg
  AUC(0-t): 2.5 µM·h
  Cmax: 8.72 µM
In vivo [3]; po, 25 mg/kg
  AUC(0-t): 0.26 µM·h
  Cmax: 0.11 µM
Mouse macrophages
  toxicity for mouse macrophages: did not detect toxicity
[4]; 50 mg/kg IP, mouse 1
  24h Observation: Normal activity
  ½ h Observation: Active, grooming
[4]; 50 mg/kg IP, mouse 2
  24h Observation: Scruffy; some lethargic
  ½ h Observation: Active, grooming
[4]; 50 mg/kg IP, mouse 3
  24h Observation: Normal activity
  ½ h Observation: Active, grooming
[4]; 100 mg/kg IP, mouse 4
  24h Observation: Normal activity; grooming
  ½ h Observation: Normal activity
[4]; 100 mg/kg IP, mouse 5
  24h Observation: Dead
  ½ h Observation: Normal activity
[4]; 100 mg/kg IP, mouse 6
  24h Observation: Euthanized
  ½ h Observation: Normal activity
[4]; 250 mg/kg IP, mouse 7
  24h Observation: Dead
  ½ h Observation: Heavy breathing
[4]; 250 mg/kg IP, mouse 8
  24h Observation: Dead
  ½ h Observation: Scruffy, heavy breathing
[4]; 250 mg/kg IP, mouse 9
  24h Observation: Euthanized
  ½ h Observation: Normal activity
[4]; 500 mg/kg IP, mouse 10
  24h Observation: Near death; scruffy; pale color
  ½ h Observation: Scruffy, heavy breathing
[4]; 500 mg/kg IP, mouse 11
  24h Observation: Euthanized
  ½ h Observation: Scruffy, heavy breathing
[4]; 500 mg/kg IP, mouse 12
  24h Observation: Euthanized
  ½ h Observation: Scruffy, heavy breathing
[4]; IP, all doses
  animal weights during the 24 h period post-injection: unchanged
[4]; IP, doses of 50, 100, 250, 500 mg/kg tested
  dose tolerated up to 24 h post injection: 50 mg/kg
[4]; mice
  tolerability of the dose required for concentrations above the MIC for a substantial fraction of the dosing interval: not tolerated
Mtb [5]
  bactericidal concentration: 5 µM
  killing kinetics: kinetics similar to that of isoniazid
  viability of the culture: < 25 CFU/ml
Mtb [6]; [15]
  impact of primary carbon source on MIC: little impact
  impact of primary carbon source on minimal bactericidal concentration: little impact
Mtb [6]; with versus without biotin
  increase of MIC by addition of biotin to the growth medium: fourfold
Rv3406 [7]
  KM value relative to 2-EHS (higher): 48 fold
  kcat value relative to 2-EHS (lower): ~1300 fold
Mtb H37Rv strain
  bactericidal activity when used individually: none of the compounds were bactericidal
[8]
  Mtb viability, non-replicating: no reduction in Mtb viability
[9]; CD-1, mouse, 25 mg/kg
  F, bioavailability relative to IV exposure: 241%
[9]; mouse
  elimination in mice: rapidly eliminated
[9]; mouse, ip
  exposure: good exposure
[9]; mouse, po
  exposure: low
Mtb in mouse macrophages
  growth of Mtb in infected mouse macrophages: inhibited growth of Mtb in a concentration-dependent manner

## C[C@H]1c2cccc(O)c2C(=O)C2=C(O)[C@]3(O)C(=O)C(C(N)=O)=C(O)[C@@H](N(C)C)[C@@H]3[C@@H](O)[C@@H]21 [doxycycline]
[10]; caused by seven daily doses of rifampicin, 8-hour period, P < 0.05
  decrease in exposure: ~ 30%
[10]; [16]
  AUC(0-t): 4780 ng·h/mL
  Doxycycline Cmin Mean (SD): 0.36 (0.09) g/mL
[10]; [17]
  AUC(0-t): 3360 ng·h/mL
  Doxycycline Cmin Mean (SD): 0.26 (0.02) g/mL
In vivo [11]; 200 ppm
  Kp at 7 days: 6.1
In vivo [11]; 400 ppm
  Kp at 7 days: 3.7
[12]; animal 1069, 200 ppm in chow, 44 lesions
  Average lesion/plasma ratio (SD): 3.9 (2.6)
[12]; animal 1071, 400 ppm in chow, 19 lesions
  Average lesion/plasma ratio (SD): 5.4 (2.5)

## CC[C@@H](CO)NCCN[C@@H](CC)CO [ethambutol]
Mtb ∆bioA
  change of MIC with decreasing concentrations of biotin: unchanged
Mtb H37Rv strain
  change of MIC by sublethal dose of Bio-AMS: reduced the MIC
  bactericidal activity when used individually: none of the compounds were bactericidal
Mtb H37Rv strain; ethambutol 12.5 µM combined with Bio-AMS 1 µM
  Mtb inoculum killed: > 99.9%

## NNC(=O)c1ccncc1 [isoniazid]
Mtb H37Rv strain
  change of MIC by sublethal dose of Bio-AMS: unchanged

## CO[C@H]1/C=C/O[C@@]2(C)Oc3c(C)c(O)c4c(O)c(c(/C=N/N5CCN(C)CC5)c(O)c4c3C2=O)NC(=O)/C(C)=C\C=C\[C@H](C)[C@H](O)[C@@H](C)[C@@H](O)[C@@H](C)[C@H](OC(C)=O)[C@@H]1C [rifampicin]
bioA TetON-1 Mtb strain
  killing of Mtb bioA TetON-1 in mouse lungs: more than 200 fold
bioA TetON-1 Mtb strain; mouse
  CFU from lungs, BioA expression reduced (no doxycycline) compared to constitutive: fewer CFU
[10]
  effect of co-administration of doxycycline on exposure: not affected
[10]; [17]
  Rifampicin Cmax Mean (SD): 5.49 (2.14) g/mL
Mtb ∆bioA
  amount accumulated in Mtb ∆bioA compared to wild-type: increased amounts of rifampicin
  change of MIC with decreasing concentrations of biotin: decreased the MIC
In vivo [13]; Rifampicin AUC[0-8] Mean (SD)
  AUC(0-t): 30700 ng·h/mL
In vivo [13]; Rifampicin Cmax Mean (SD)
  Cmax: 5210 ng/mL
Mtb H37Rv strain
  change of MIC by sublethal dose of Bio-AMS: reduced the MIC
  bactericidal activity when used individually: none of the compounds were bactericidal
Mtb H37Rv strain; rifampicin 6.5 nM combined with Bio-AMS 1 µM
  Mtb inoculum killed: more than 99.7%

## O=C(O)CCC(=O)C(=O)O [α-KG, alpha-ketoglutarate]
Rv3406 [1]
  Km: 9.4 ± 1.2 µM
  kcat: 21.8 ± 1.0 min⁻¹

## Rv3406 (Mycobacterium tuberculosis H37Rv)
[14]
  Km: 0.424 ± 0.136 mM
  kcat: 0.015 ± 0.001 min⁻¹
  kcat/Km: 0.035 ± 0.007 min⁻¹ mM⁻¹
